Results taken from PubChem BioAssay (NCI).
“And” between values parts separate entries of the source, which are not always exact repeats. Identical values can stand only once.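 Exposure lasted 48 hours, with cells grown in 96-well plates and compounds tested at five concentrations. GI50: concentration for 50% inhibition of growth. Definition used: TGI = concentration required for complete inhibition of growth.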

Legend:
Experiment in all cases: NCI tumour cell line growth inhibition, 48 h
HS 578T breast = test system: HS 578T breast
A498 renal = test system: A498 renal
IGROV1 ovarian = test system: IGROV1 ovarian
KM12 colon = test system: KM12 colon
SNB-19 CNS = test system: SNB-19 CNS
T-47D breast = test system: T-47D breast
OVCAR-8 ovarian = test system: OVCAR-8 ovarian
CAKI-1 renal = test system: CAKI-1 renal
OVCAR-3 ovarian = test system: OVCAR-3 ovarian
786-0 renal = test system: 786-0 renal

Row | SMILES | TGI (HS 578T breast) [µM] | TGI (A498 renal) | TGI (IGROV1 ovarian) | TGI (KM12 colon) | TGI (SNB-19 CNS) | TGI (T-47D breast) [µM] | TGI (OVCAR-8 ovarian) | TGI (CAKI-1 renal) | TGI (OVCAR-3 ovarian) | TGI (786-0 renal) [µM] | GI50 (KM12 colon) [µM] | GI50 (OVCAR-8 ovarian) [µM] | GI50 (CAKI-1 renal) [µM] | GI50 (A498 renal) [µM] | GI50 (OVCAR-3 ovarian) [µM] | GI50 (IGROV1 ovarian) [µM] | GI50 (SNB-19 CNS) [µM] | GI50 (HS 578T breast) [µM] | GI50 (T-47D breast) [µM]
1 | c1ccc(CSC(SCc2ccccc2)c2cccc3ccccc23)cc1 | > 10 | > 10 µM | > 10 µM | > 10 µM | > 10 µM | > 10 | > 10 µM | > 10 µM |  |  |  |  |  |  |  |  |  |  | 
2 | c1ccc(/C(=N\Nc2nc3ccccc3[nH]2)c2ccccn2)cc1 | 51.7 | 5.14 µM | 1.31 µM | 17 µM | > 100 µM | 27 | 1.05 µM | 8.79 µM | 2.99 µM | 2.57 |  |  |  |  |  |  |  |  | 
3 | N#CC1(CCCI)CCCC1 |  | > 100 µM | > 100 µM | > 100 µM | 31.6 µM |  | > 100 µM |  | 31.1 µM |  |  |  |  |  |  |  |  |  | 
4 | O=C(O)c1cc2ccccc2c(N=Nc2ccc(S(=O)(=O)Nc3ccccn3)cc2)c1O | > 100 |  | > 100 µM | > 100 µM | > 100 µM | > 100 | > 100 µM | > 100 µM | > 100 µM | > 100 |  |  |  |  |  |  |  |  | 
5 | Cc1[nH]c(C(=O)Nc2ccc(C(=O)NCCN)cc2OC(C)C)c(Cl)c1Cl |  |  |  | 3.21 µM |  |  | 5.43 µM | 3.04 µM |  |  | 1.74 | 2.23 | 1.63 |  |  |  |  |  | 
6 | Cc1csc2nc(-c3cccc([N+](=O)[O-])c3)c(/C=N/N=C(N)N)n12 | 3.45 | 2.92 µM | 3.19 µM | 4.86 µM |  | 8.06 | 3.2 µM | 8.71 µM | 4.24 µM | 2.91 |  |  |  |  |  |  |  |  | 
7 | O=C1Nc2cccc(Cl)c2/C1=C\c1cccnc1 | 91.9 | 37.1 µM |  | 25.9 µM | 16.3 µM | 16.6 | 20.1 µM | 24.2 µM | 21.2 µM | 20.9 |  |  |  |  |  |  |  |  | 
8 | C[n+]1c2ccccc2c(N=[N+]=[N-])c2ccccc21 | > 10 | > 10 µM | > 10 µM | > 10 µM | > 10 µM | > 10 | > 10 µM | > 10 µM | > 10 µM | > 10 |  |  |  |  |  |  |  |  | 
9 | CCCCCCCCCCCCc1ccc(S(=O)(=O)O)cc1.[Cu+2] | > 100 | > 100 µM | > 100 µM | > 100 µM | > 100 µM | > 100 | > 100 µM | > 100 µM | > 100 µM | > 100 |  |  |  |  |  |  |  |  | 
10 | CC[C@@]1(O)CC(OC2CC(N3CCOCC3)C(O)C(C)O2)c2c(O)c3c(c(O)c2[C@H]1O)C(=O)c1cccc(O)c1C3=O (stereo not given in full) | 1.61 | 0.634 µM and 0.229 µM | 2.9 µM and 5.99 µM | 3.59 µM and 1.68 µM | 3.92 µM and 4.16 µM | 3.35 | 1.07 µM and 5.5 µM | 0.318 µM and 0.243 µM | 2.73 µM and 1.63 µM | 2.18 |  | 0.0285 |  | 0.07 | 0.176 | 0.235 | 0.0292 |  | 
11 | O=C(CSCC(=O)N/N=C\c1ccc(F)cc1F)N/N=C\c1ccc(F)cc1F | > 100 | > 100 µM | > 100 µM | > 100 µM | > 100 µM | > 100 | > 100 µM | > 100 µM | > 100 µM | > 100 |  |  |  |  |  |  |  |  | 
12 | C[C@]12CC[C@H]3[C@@H](CC=C4C[C@@H](O)CC[C@@]43C)[C@@H]1C/C(=C\c1ccncc1)[C@@H]2O | > 100 | 28.3 µM | 73.5 µM | 31.2 µM | 62.1 µM | 42.5 | 39.8 µM | 57.4 µM | > 100 µM | 60.5 |  |  |  |  |  |  |  |  | 
13 | N#Cc1c(-c2ccc([N+](=O)[O-])cc2)c2c([nH]c1=O)-c1ccccc1CCC2 | > 100 | > 100 µM | > 100 µM | > 100 µM | > 100 µM | 70.5 | > 100 µM | > 100 µM | > 100 µM | > 100 |  |  |  |  |  |  |  |  | 
14 | CC(C)CCN(CCC(C)C)CC(=O)Nc1ccc(S(=O)(=O)c2ccc(NC(=O)CN(CCC(C)C)CCC(C)C)cc2)cc1 | 70.3 | 38.8 µM | 4.5 µM | 3.25 µM | 10.3 µM | 4.29 | > 100 µM |  | 3.03 µM |  | 1.62 | 2.89 |  | 16.5 | 1.41 | 1.64 | 2.19 | 5.37 | 1.4
15 | O=C1OC(c2ccc(O)cc2)(c2ccc(O)cc2)c2ccc(Cl)c3cccc1c23 (tested in a mixture with another compound) | 40.6 | > 75 µM | 33.2 µM | 17.9 µM | > 75 µM |  | 38.9 µM | 22 µM | > 75 µM |  |  |  |  |  |  |  |  |  | 
16 | COc1ccccc1C#C/C=C\C#Cc1ccccc1C#N | 65.4 |  | 35.8 µM | 55.6 µM | > 100 µM | > 100 | 34.4 µM | 61.5 µM | 24.5 µM | 81.8 |  |  |  |  |  |  |  |  | 
17 | C[N+]1(C(CO)Cc2c[nH]c3ccccc23)Cc2ccccc2C1 (stereo not given) | > 100 | > 100 µM | > 100 µM | > 100 µM | > 100 µM | > 100 | > 100 µM | > 100 µM | > 100 µM | > 100 |  |  |  |  |  |  |  |  | 
18 | Cc1ncc(C(=O)Nc2ccc(CN3CCN(C)CC3)c(C(F)(F)F)c2)cc1C#Cc1cnc(N)c2ccc(C#N)cc12 |  |  | 0.23 µM |  |  | > 100 |  |  | 8.09 µM |  |  |  |  |  | 0.0949 |  |  |  | 0.114
